Reference: patent publication US20060217340A1, “Methods and products for treating hypertension by modulation of TRPC3 channel activity” (University of Vermont and State Agricultural College, priority 2005, published 2006)

Legend:
[1] = system: pressurized rat cerebral arteries; assay: Arterial diameter recordings (constriction) in pressurized cerebral arteries; assay type: cell-based; details: for change in lumen diameter: Ca2+ returned to superfusate in the presence of UTP and nimodipine; for decrease of resting diameter: extracellular KCl raised from 5 mM to 60 mM; for myogenic tone: intravascular pressure increased from 20 to 80 mm Hg
Description: Oligodeoxynucleotide Sequences and Reverse Permeabilization. TRPC6 sense and antisense oligodeoxynucleotides (ODN's) were designed as previously described (Welsh et al 2002 Circ Res 90, 248-250) and were as follows: sense, 5′-[…]-3′ (SEQ ID: 3) and 5′-GCACACGCAGCCTCTTCAC-3′ (SEQ ID: 4) antisense, 5′-[…]-3′ (SEQ ID: 5) and 5′-[…]-3′ (SEQ ID: 6). TRPC3 sense and antisense ODN's were designed based on the rat TRPC3 gene (Ohki et al 2000 J Biol Chem 275: 39055-39060) and are as follows: sense, 5′-[…]-3′ (SEQ ID: 7) and 5′-[…]-3′ (SEQ ID: 8); anti-sense, 5′-[…]-3′ (SEQ ID: 9) and 5′-[…]-3′ (SEQ ID: 10). The last five bases on the 5′ and 3′ end were phosphorothioated in order to limit ODN degradation. For some experiments fluoroscein-isothiocyanate was conjugated to the 5′ end to allow for histological assessment of cellular uptake of the ODNs. All ODNs were synthesized and HPLC purified commercially by Qiagen (Alameda, Calif., USA). Sense and antisense ODN's (2 μM) were introduced into the arterial SMs using a reversible permeabilization procedure (Lesh et al 1995 Circ Res 77,220-230)). The arterial segments were then organ cultured for 3 days in D-MEM/F-12 culture media with L-glutamine (2 mM), penicillin (50 units/ml) and streptomycin (50 μg/ml) prior to use.
Diameter and membrane potential recordings. Endothelial cell denuded artery segments were mounted on glass pipettes in an arteriograph chamber (Living Systems, Burlington, Vt., USA), pressurized to 20 mmHg (with no flow), and superfused with warm (37° C.), gassed (95% 02/5% CO2) physiological saline solution (PSS) containing (in mM): 119 NaCl, 4.7 KCl, 24 NaHCO3, 0.2 KH2PO4, […], 1.2 MgSO4, 1.6 CaCl2, and 10.6 glucose, pH 7.4. In experiments using Ca^2+-free PSS, CaCl2 was omitted and 3 mM EGTA and 30 μM diltiazem added. In experiments with diacylglycerol induction, 300 μM of the diacylglycerol analogue OAG (1-oleyol-2-acetyl-sn-glycerol) was added. The endothelium was removed as previously described (Sun et al 1993 Endothelium 1, 115-122). To verify endothelial cell removal the arteries were pressurized to 60 mmHg and allowed to develop myogenic tone prior to exposing the vessels to 1 μM UTP. Absence of a dilation or biphasic constrictor response to 1 μM UTP indicated successful endothelial cell removal (Marelli 2001 Am J Physiol Heart Cir Physiol 281, H1759-H1766; Miyagi et al 1996 Br J Pharmacol 118, 847-856). […] Membrane potential was measured by inserting a sharp glass electrode (≈100 MΩ resistance) containing 0.5M KCl into the vessel wall. The criteria for successful vascular smooth muscle cell impalement were: (1) a sharp negative Vm deflection on entry; (2) a stable potential for at least 1 minute after entry; and (3) a sharp positive Vm deflection upon removal. Measurements were made using an electrometer (World Precision Instruments) and the data were recorded via computer using Axotape and Dataq software. Arterial diameter was measured using a video dimension analyzer (IonOptix Corporation; Milton, Mass.).
Statistical analysis. Data are expressed as means±SEM, and n indicates the number of animals. Changes in arterial diameter were measured as a percent constriction calculated as follows: [formula]

[2] = system: pressurized rat cerebral arteries; assay: Arterial wall Ca2+ concentration measurement (FURA-2) in isolated arteries; assay type: cell-based; details: for change in arterial wall Ca2+: Ca2+ returned to superfusate in the presence of UTP and nimodipine
Protocol: Diameter and membrane potential recordings. […] In experiments using Ca^2+-free PSS, CaCl2 was omitted and 3 mM EGTA and 30 μM diltiazem added. In experiments with diacylglycerol induction, 300 μM of the diacylglycerol analogue OAG (1-oleyol-2-acetyl-sn-glycerol) was added. […] To verify endothelial cell removal the arteries were pressurized to 60 mmHg and allowed to develop myogenic tone prior to exposing the vessels to 1 μM UTP. […] Arterial diameter or membrane potential (Vm) of sense and anti-sense treated arteries was measured in the absence (control) or presence of UTP (concentration range: 0.1 to 10 μM). Membrane potential was measured by inserting a sharp glass electrode (≈100 MΩ resistance) containing 0.5M KCl into the vessel wall. […] Measurements were made using an electrometer (World Precision Instruments) and the data were recorded via computer using Axotape and Dataq software. Arterial diameter was measured using a video dimension analyzer (IonOptix Corporation; Milton, Mass.).
Ca^2+ concentration measurement in isolated arteries. Mounted arteries were equilibrated in 1.6 m M PSS for 40 minutes at 37° C. (pH 7.4) prior to loading the vascular smooth muscle cells with the Ca^2+-sensitive fluorescent dye, FURA-2. To load the cells, the 1.6 mM PSS was gradually replaced over 5 minutes with HEPES solution (25° C., pH 7.4). A total of 40 μL of a premixed 100 μM FURA-2-acetoxymethyl ester solution (100 μg FURA-2, 200 μL Pluronic acid, 800 μL DMSO) was added directly to the HEPES to give a final concentration of 2 μM FURA-2 AM. Loading continued in the dark at 25° C. (pH 7.4) for 40 minutes. At the end of the loading period, the HEPES was replaced with 1.6 mM PSS (35° C., pH 7.4) and 30 minutes was allowed for complete de-esterification of the FURA-2 AM before [Ca^2+]c measurements were made. FURA-2 fluorescence was measured using a photomultiplier system (IonOptix Corporation; Milton, Mass., USA) in which background-corrected ratios of the 510-nm emission from arteries alternatively excited at 340 and 380 nm were obtained at a sampling rate of 5 Hz.

[3] = 1 μM UTP, paired arteries, original recordings (FIG. 7A)

Substance	generalized inhibitory effect on arterial contractility [1]	constriction [1, 3] [%]	constriction ([1]; 300 μM OAG) [%]	reduction of UTP-induced constriction compared with sense-treated arteries ([1]; 10^−5 M UTP) [%]	reduction of UTP-induced constriction compared with sense-treated arteries ([1]; 10^−6 M UTP)	change in lumen diameter [1] [μm]	decrease of resting diameter [1] [%]	myogenic tone [1] [%]	constrictions versus sense treated arteries ([1]; low concentration of UTP (0.1 to 1.0 μM))	increase in arterial wall Ca2+ ([2]; 300 μM OAG) [nM]	change in arterial wall Ca2+ [2] [nM]
5′-GAGAACCATGAACTGGAATA-3′ (SEQ ID: 9) and 5′-ACGACCAACACGACCAGACA-3′ (SEQ ID: 10) (phosphorothioate ends, further chemistry not given here) [TRPC3 antisense, antisense ODNs based on the rat TRPC3 gene; last five bases on the 5′ and 3′ end phosphorothioated]	no generalized inhibitory effect	30	1±1	37	approximately 61%	−85±17	57±9	27±5	significantly less	6 ± 2	50 ± 12
5′-TATTCCAGTTCATGGTTCTC-3′ (SEQ ID: 7) and 5′-TGTCTGGTCGTGTTGGTCGT-3′ (SEQ ID: 8) (phosphorothioate ends, further chemistry not given here) [TRPC3 sense, sense control ODNs based on the rat TRPC3 gene; end bases phosphorothioated]		38	17±3			−128±8	58±12	26±4			100 ± 22
